{"source": "paper PMC7719179", "about": "“Small molecule inhibition of Dynamin-dependent endocytosis targets multiple niche signals and impairs leukemia stem cells” (Nature Communications, 2020)", "system": "Ba/F3-IL7R^Stat5-CA cells", "test": "pStat5 and proliferation of Ba/F3-IL7R^Stat5-CA cells with IL-7 or doxycycline", "assay_type": "cell-based, murine", "conditions": "relative to data from day 0, reported as 1, groups +IL-7 -DOX or -IL-7 +DOX", "description": "Ba/F3 cells (kindly provided by a person from The Walter and Eliza Hall Institute of Medical Research) were infected with pMIG-R1/Il7r retroviral supernatants produced in 293T cells, and transduced cells were sorted with a BD Influx (BD Australia) and selected by culture in medium supplemented with 5 ng/mL rmIL-7 (#217-17, Pepro Tech, Rocky Hill NJ, USA) for 7 days. Ba/F3 cells stably expressing Il7r (Ba/F3-IL7R) were infected with TxTCPVIR-Stat5-CA retroviral supernatants produced in 293T. Cell sorting was performed with a BD Influx and transduced cells were treated with doxycycline for 48 h to induce the expression of the Stat5-CA-T2A-mCherry fusion protein. […]\n(red) assessed by flow cytometry (top) and Western blots (bottom). MFI ± SD of n=2 technical replicates, performed in 2 independent experiments (***P<0.001 compared to unstimulated cells ; white bar). For Western blots, Actin was used as a loading control. f, Proliferation of BaF3-IL7R Stat5-CA cells in absence (+IL-7 –DOX; grey) or presence (-IL-7 +DOX; red) of doxycycline. Fold expansion was calculated from the number of cells initially put into culture at day 0. […]", "note": "“And” between values parts separate entries of the source, which are not always exact repeats. Equal values may be shown once.", "data": [{"smiles": "C[C@H]1c2cccc(O)c2C(=O)C2=C(O)[C@]3(O)C(=O)C(C(N)=O)=C(O)[C@@H](N(C)C)[C@@H]3[C@@H](O)[C@@H]21", "note": "[DOX]", "values": [{"measurement": "Fold expansion", "setting": "24 h", "value": "0.89 and 0.85 and 0.86 and 0.90 and 0.74 and 0.77"}, {"measurement": "Fold expansion", "setting": "48 h", "value": "1.39 and 1.43 and 1.24 and 1.40 and 1.29 and 1.28"}, {"measurement": "Fold expansion", "setting": "72 h", "value": "2.22 and 2.26 and 3.46 and 3.54 and 3.68 and 3.14"}, {"measurement": "Fold expansion", "setting": "96 h", "value": "3.24 and 3.39 and 3.99 and 3.41 and 3.51 and 3.96"}, {"measurement": "Fold expansion", "setting": "120 h", "value": "10.84 and 12.62 and 8.80 and 9.76 and 7.34 and 8.20"}]}]}
